# Results taken from patent US7943603B2, “Medical uses of a selective estrogen receptor modulator in combination with sex steroid precursors” (Endorecherche, Inc., priority 1998, dated 2011).
# “Also recorded” adds a separate entry of the source.
# Key:
# [1] = target: T1, estrogen receptor (Homo sapiens, UniProt P03372); assay: Testing of antiestrogens for function as SERM
# T1 sequence (P03372 1-595): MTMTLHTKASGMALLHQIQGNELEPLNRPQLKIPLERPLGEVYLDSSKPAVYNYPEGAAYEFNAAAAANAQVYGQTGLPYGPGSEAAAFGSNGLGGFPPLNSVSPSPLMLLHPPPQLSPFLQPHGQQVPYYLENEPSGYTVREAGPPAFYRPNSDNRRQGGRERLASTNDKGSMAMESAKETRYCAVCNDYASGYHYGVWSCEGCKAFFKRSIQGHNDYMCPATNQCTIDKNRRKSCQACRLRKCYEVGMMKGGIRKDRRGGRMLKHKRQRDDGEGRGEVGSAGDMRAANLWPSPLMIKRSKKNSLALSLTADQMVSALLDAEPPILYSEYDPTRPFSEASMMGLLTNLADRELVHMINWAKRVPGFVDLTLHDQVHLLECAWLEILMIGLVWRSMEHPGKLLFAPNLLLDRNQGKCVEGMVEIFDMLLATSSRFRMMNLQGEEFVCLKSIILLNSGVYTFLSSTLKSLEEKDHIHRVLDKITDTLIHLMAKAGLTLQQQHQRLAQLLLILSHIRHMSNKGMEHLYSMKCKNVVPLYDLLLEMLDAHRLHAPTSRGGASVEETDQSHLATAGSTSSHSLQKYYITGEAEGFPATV
# [2] = system: human ZR-75-1 breast tumor xenografts; assay: Growth of human ZR-75-1 breast tumor xenografts in OVX nude mice supplemented with estrone; details: 9.5 months
# [3] = Example 5 table: serum, urinary and GnRH mRNA parameters in OVX groups; type: in vivo; details: doses not given; for LH: LD: Limit of Detection: 0.01 ng/ml
# [4] = system: ovariectomized rats; details: treatment with 5-diol
# [5] = Solid state stability; type: physicochemical
# [6] = system: postmenopausal women; details: cited from earlier work
# [7] = system: DMBA-induced mammary carcinoma; assay: Development of DMBA-induced mammary carcinoma in the rat; type: in vivo; details: 279 days after DMBA
# Description: (§1) Female Sprague-Dawley rats [Crl:CD(SD)Br] were obtained at 44-46 days of age from Charles River Canada Inc. (St. Constant, Quebec) and housed 2 per cage in a light (12 h light/day; lights on at 07:15 h)-and temperature (22±2° C.)-controlled environment. Animals received Purina rodent chow and tap water ad libitum. The animal studies were conducted in a Canadian Council on Animal Care (CCAC)-approved facility in agreement with the CCAC Guide for Care and Use of Experimental Animals.
# Mammary carcinomas were induced by a single intragastric administration of 20 mg of DMBA (Sigma Chemical Co., St. Louis, Mo.) in 1 ml of corn oil at 50-52 days of age. Two months later, tumor measurement was performed biweekly. The two largest perpendicular diameters of each tumor were recorded with calipers to estimate tumor size as described (Asselin et al., Endocrinology 101: 666-671, 1977). Tumor site, size and number were recorded.
# (§2) The animals were randomly divided into groups each containing 20 rats with the exception of 40 animals in the control group. […] Treatment was initiated 3 days before the oral administration of DMBA. EM-800 was synthesized in the Medicinal Chemistry Division of our laboratory while DHEA was purchased from Steraloids Inc., Wilton, N.H.
# Many of the control animals and some of EM-800- or DHEA-treated animals were sacrificed by cervical dislocation under isoflurane-induced anesthesia 6 months after DMBA administration because of the too large size of tumors. The values of tumor size and number of these rats at sacrifice, together with those measured at later time intervals from the surviving animals, were used for the later analysis of the incidence of tumors, average tumor number per tumor-bearing rat and average tumor size per tumor-bearing animal. […] Rats were sacrificed 279 days after DMBA administration.
# Statistical significance was measured according to the multiple range test of Duncan-Kramer (Biometrics 12: 307-310, 1956). Analysis of the incidence of development of mammary tumors was performed using the Fisher's exact test (Conover, Practical nonparametric statistics, 2nd Edition 153-170, 1980). The data are presented as means±S.E.M.
# [8] = system: rat; assay: Urine and serum biochemical parameters of bone metabolism; type: in vivo; details: DHEA 10 mg percutaneously, EM-800 75 μg orally, once daily, alone or in combination, 9 months
# Description: as §2
# (§3) Twenty-four-hour urinary samples were collected at the end of the experiment from the first 9 rats of each group following transfer in metabolic cages (Allentown Caging Equipment Co., Allentown, N.J.). Two urinary samples were collected and analyzed on different days for each animal in order to minimize the influence of daily variation. Therefore, each value shown represents the mean of the two measurements performed on two different days. 0.5 ml of toluene was added into the urine collecting tubes to prevent urine evaporation and bacterial growth and the urinary volume was recorded. Trunk blood was collected at sacrifice and was allowed to clot at 4° C. overnight before centrifugation at 3000 rpm for 30 min.
# (§4) Fresh samples were used for the assay of urinary creatinine, calcium, and phosphorus as well as serum total alkaline phosphatase (tALP) activity, cholesterol and triglycerides. These biochemical parameters were measured automatically with a Monarch 2000 Chemistry System (Instrumentation Laboratory Co. Lexington, Mass.) under Good Laboratory Practice conditions. Urinary hydroxyproline was measured as described (Podenphant et al., Clinica Chimica Acta 142: 145-148, 1984).
# [9] = system: ovariectomized rats; assay: Bone histomorphometry of tibia after 12-month treatment of ovariectomized rats; type: in vivo, rat; details: 12 months, histology
# Description: Intact animals are added as additional controls. Data are presented as mean±SEM **p<0.01 versus OVX Control.
# Modified trichrome Masson-Goldner, magn. ×80. T: Trabeculae, GP: Growth Plate.
# [10] = aged Sprague-Dawley rats; reduced from 600 g, food intake unaffected; cited from earlier work
# [11] = system: ovariectomized (OVX) nude mice supplemented with estrone; assay: Uterine, vaginal and body weight in OVX nude mice bearing ZR-75-1 xenografts; details: OVX+E1 nude mice
# Description: A posteriori pairwise comparisons were performed using Fisher's test for least significant difference. Main effects and the interaction of treatments on body weight and organ weight were analyzed using a standard two-way ANOVA with interactions. All ANOVAs were performed using SAS program (SAS Institute, Cary, N.C., USA). Significance of differences were declared using a 2-tailed test with an overall level of 5%.
# [12] = system: female rat; assay: Bone mineral density (DEXA) after 9-month treatment; type: in vivo; details: DHEA 10 mg percutaneously, EM-800 75 μg orally, once daily, alone or in combination, 9 months
# Description: as §1, §2
# Rats were anesthetized with an i.p. injection of ketamine hydrochloride and diazepam at doses of 50 and 4 mg/kg B.W., respectively. The whole skeleton and the right femur were scanned using dual energy X-ray absorptiometry (DEXA; QDR 2000-7.10C, Hologic, Waltham, Mass.) equipped with a Regional High Resolution software. The scan field sizes were 28.110×17.805 cm and 5.0×1.902 cm, the resolutions were 0.1511×0.0761 cm and 0.0254×0.0127 cm, while the scan speeds were 0.3608 and 0.0956 mm/sec for total skeleton and femur, respectively. Both bone mineral content (BMC) and bone mineral density (BMD) of total skeleton, lumbar spine, and femur were measured on the scan images of total skeleton and femur.
# [13] = system: rat; assay: Serum triglyceride and cholesterol levels after 9-month treatment; type: in vivo; details: DHEA 10 mg percutaneously, EM-800 75 μg orally, once daily, alone or in combination, 9 months
# Description: as §2, §3, §4
# [14] = E1 0.5 μg s.c. daily alone, OVX nude mice
# [15] = DHEA 0.3 mg percutaneously, alone or with EM-800 15 μg, OVX+E1 0.5 μg nude mice
# [16] = DHEA 1.0 mg percutaneously, alone or with EM-800 15 μg, OVX+E1 0.5 μg nude mice
# [17] = DHEA 3.0 mg percutaneously, alone or with EM-800 15 μg, OVX+E1 0.5 μg nude mice
smiles,measurement,setting,value
"C[C@]12CC[C@@H]3c4ccc(O)cc4C[C@@H](CCCCCCCCC[S+]([O-])CCCC(F)(F)C(F)(F)F)[C@H]3[C@@H]1CC[C@@H]2O (some centres unmarked) [ICI 182,780]",function as SERM,[1],found not to function as SERMs
C[C@]12CC[C@@H]3c4ccc(O)cc4CC[C@H]3[C@@H]1CCC2=O [estrone],"Complete response, (%)",[2]; [14],0%
same,"Complete response, number",[2]; [14],0 (0)
same,"Partial response, (%)",[2]; [14],0 (0) %
same,"Partial response, number",[2]; [14],0 (0)
same,"Progression, number",[2]; [14],14
same,"Stable response, (%)",[2]; [14],12.5%
same,"Stable response, number",[2]; [14],2
same,"Complete response, (%)","[2]; E1 0.5 μg s.c. daily alone, OVX nude mice, listed as E1",0 (0) %
C[C@]12CCC(=O)C[C@@H]1CC[C@@H]1[C@@H]2CC[C@]2(C)[C@@H](O)CC[C@@H]12 [DHT],Cholesterol,[3],2.44 ± 0.16 mmol/L
same,GnRH mRNA levels silver grains per cell,[3],38.8 ± 0.7 silver grains per cell
same,Serum Alkaline phosphatase,[3],56 ± 5 IU/L
same,Triglycerides,[3],0.9 ± 0.1 mmol/L
same,Urinary OH-proline/creatinin,[3],7.8 ± 0.7 μmol/mmol
same,LH,[3],1.55 ± 0.27 ng/mL
CC/C(=C(/c1ccc(OCCN(C)C)cc1)c1cccc(O)c1)c1ccccc1 [Droloxifene],function as SERM,[1],found to function as SERMs
"C[C@]12CC[C@H]3[C@@H](CC=C4C[C@@H](O)CC[C@@]43C)[C@@H]1CC[C@@H]2O [5-diol, androst-5-ene-3β,17β-diol]",serum alkaline phosphatase activity,[4],marked stimulation
CC(=O)O[C@]1(C(C)=O)CC[C@H]2[C@@H]3C[C@H](C)C4=CC(=O)CC[C@]4(C)[C@H]3CC[C@@]21C [MPA],Cholesterol,[3],2.55 ± 0.14 mmol/L
same,GnRH mRNA levels silver grains per cell,[3],35.5 ± 0.7 silver grains per cell
same,Serum Alkaline phosphatase,[3],57 ± 4 IU/L
same,Triglycerides,[3],1.3 ± 0.1 mmol/L
same,Urinary OH-proline/creatinin,[3],11.7 ± 1.2 μmol/mmol
same,LH,[3],2.51 ± 0.20 ng/mL
"CC1=C(c2ccc(O)cc2)[C@H](c2ccc(OCCN3CCCCC3)cc2)Oc2cc(O)ccc21.Cl [EM-01538, (S)-(+)-7-hydroxy-3-(4′-hydroxyphenyl)-4-methyl-2-(4″-(2′″-piperidinoethoxy)phenyl)-2H-1-benzopyran hydrochloride]",solid state stability,[5],good solid state stability
C[C@]12CC[C@H]3[C@@H](CCC4=CC(=O)CC[C@@H]43)[C@@H]1CC[C@@H]2O [nandrolone],patients with androgenic side-effects,[6],50%
"C[C@]12CC[C@@H]3c4ccc(O)cc4CC[C@H]3[C@@H]1CC[C@@H]2O [E2, 17β-estradiol]",Cholesterol,[3],2.02 ± 0.15 mmol/L
same,GnRH mRNA levels silver grains per cell,[3],40.4 ± 0.8 silver grains per cell
same,Serum Alkaline phosphatase,[3],41 ± 5 IU/L
same,Triglycerides,[3],0.8 ± 0.1 mmol/L
same,Urinary OH-proline/creatinin,[3],9.2 ± 0.9 μmol/mmol
same,LH,[3],2.37 ± 0.45 ng/mL
"C[C@]12CC[C@H](O)CC1=CC[C@@H]1[C@@H]2CC[C@]2(C)C(=O)CC[C@@H]12 [DHEA, dehydroepiandrosterone]",incidence of DMBA-induced mammary carcinoma (animals with palpable tumors),"[7]; DHEA 10 mg percutaneously, EM-800 75 μg orally, once daily, control 95%",57%
same,average tumor number per tumor-bearing animal,"[7]; end of experiment, DHEA 10 mg, EM-800 75 μg daily, control 4.7±0.5",3.4±0.7 tumors/animal
same,average tumor area per tumor-bearing animal,"[7]; end of experiment, DHEA 10 mg, EM-800 75 μg daily, control 12.8±1.3",10.2±2.1 cm^2
same,decrease of daily urinary calcium excretion versus control,[8],no effect
same,decrease of daily urinary phosphorus excretion versus control,[8],no effect
same,decrease of urinary hydroxyproline/creatinine ratio versus control,[8],no effect; also recorded: did not affect; also recorded: did not show any effect
same,"Complete response, (%)",[2]; [15],28.6%
same,"Complete response, number",[2]; [15],4
same,"Partial response, (%)",[2]; [15],0 (0) %
same,"Partial response, number",[2]; [15],0 (0)
same,"Progression, (%)",[2]; [15],50.0%
same,"Progression, number",[2]; [15],7
same,"Stable response, (%)",[2]; [15],21.4%
same,"Stable response, number",[2]; [15],3
same,"Complete response, (%)",[2]; [16],26.7%
same,"Complete response, number",[2]; [16],4
same,"Partial response, (%)",[2]; [16],0 (0) %
same,"Partial response, number",[2]; [16],0 (0)
same,"Progression, (%)",[2]; [16],53.3%
same,"Progression, number",[2]; [16],8
same,"Stable response, (%)",[2]; [16],20.0%
same,"Stable response, number",[2]; [16],3
same,"Complete response, (%)",[2]; [17],20.0%
same,"Complete response, number",[2]; [17],3
same,"Partial response, (%)",[2]; [17],0 (0) %
same,"Partial response, number",[2]; [17],0 (0)
same,"Progression, (%)",[2]; [17],66.7%
same,"Progression, number",[2]; [17],10
same,"Stable response, (%)",[2]; [17],13.3%
same,"Stable response, number",[2]; [17],2
same,effect on trabecular bone volume of proximal tibia metaphysis (FIG. 8),[9],significant increase in trabecular bone volume
same,body weight,[10],550 g
same,effect of addition of DHEA on estrone-stimulated vaginal weight,"[11]; DHEA 0.3, 1.0 or 3.0 mg",no significant effect
same,effect on body weight adjusted for tumor weight,[11]; 9.5 months,No significant effect
same,BMD FEMUR,[12],0.3408 ± 0.0038 g/cm2
same,BMD LUMBAR SPINE,[12],0.2163 ± 0.0049 g/cm2
same,BMD TOTAL SKELETON,[12],0.1465 ± 0.0010 g/cm2
same,increase in BMD of femur versus control,[12],8.2%
same,increase in BMD of lumbar spine versus control,[12],10.6%
same,increase in BMD of total skeleton versus control,[12],6.9%
same,decrease of serum cholesterol levels,[13],unaffected
same,decrease of serum triglyceride levels,[13],60%
same,GnRH mRNA levels silver grains per cell,[3],34.5 ± 0.7 silver grains per cell
same,Triglycerides,[3],0.8 ± 0.1 mmol/L
same,Urinary OH-proline/creatinin,[3],7.3 ± 1.0 μmol/mmol
same,LH,[3],0.02 ± 0.01 ng/mL
